Tests used:
P-glycoprotein (ABCB1) = system: P-glycoprotein (ABCB1); design: method as in earlier work; conditions: cited from earlier work
CYP = system: CYP; design: method as in DrugBank. Betrixaban (DB12364); conditions: ref DrugBank. Betrixaban (DB12364); cited from earlier work
[1] = system: patients undergoing knee replacement surgery; test: Bleeding events during 14-day therapy, phase II trial; assay type: in vivo, human
Text: (§1) The design, eligibility criteria, and outcomes of the phase II clinical trial evaluating the safety and tolerability of DD217 (NCT05189002, ClinicalTrials.gov) have been described previously. Briefly, this was a multicenter, double-blind, randomized, prospective phase II study designed to determine the optimal dosing regimen and to assess the safety and efficacy of DD217 for the prevention of venous thromboembolism (VTE) in patients undergoing knee replacement surgery. Patients were randomized into one of three groups: two groups received oral DD217 at doses of 40 mg or 60 mg once daily, starting on the morning of the first postoperative day, and one group received the active comparator, dalteparin sodium. The treatment duration was 14 days.
(§2) In total, seven cases of DVT/PE were documented during the trial: four in the DD217 40 mg/day group, one in the DD217 60 mg/day group, and two in the dalteparin sodium group. In addition, two bleeding events were recorded: one clinically relevant non-major bleed in the DD217 60 mg/day group and one clinically non-relevant minor bleed in the dalteparin sodium group.

[2] = system: patients undergoing knee replacement surgery; test: Thromboembolic complications (DVT/PE) during 14-day therapy, phase II trial; assay type: in vivo, human; conditions: 14 days
Text: as §1, §2

bleeding events ([1]; dalteparin sodium group, clinically non-relevant minor bleed) | Compound | P-glycoprotein (ABCB1) substrate status (P-glycoprotein (ABCB1)) | share of metabolism via CYP (CYP) [%] | Bleeding, n (safety outcomes) ([1]; dalteparin sodium, 14 days, of 18 patients) [n] | cases of DVT/PE ([2]; dalteparin sodium group (18 patients)) | PE/DVT, n (safety outcomes) ([2]; dalteparin sodium, of 18 patients) [n]
– | COc1ccc(NC(=O)c2ccc(C(=N)N(C)C)cc2)c(C(=O)Nc2ccc(Cl)cn2)c1 [Betrixaban] | P-glycoprotein (ABCB1) substrate | < 1 | – | – | –
one | dalteparin sodium [reference compound] | – | – | 1 | two | 2

— publication PMC12655527, “An Investigational Study on the Role of ADME Agents’ Genetic Variation on DD217 Pharmacokinetics and Safety Profile” (Pharmaceuticals, 2025)
